Experiments:
common ragweed = assay: Test C pre-/postemergence herbicide test; assay type: in vivo, Ambrosia elatior; set-up: key to Plant response rating, Ragweed: 0 = no effect, 100 = complete control; details: preemergence; for Plant response rating (0 = no effect, 100 = complete control), Ragweed: 125 g ai/ha
Procedure, shortened: (§1)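 Visual ratings on a 0–100 scale (100 = complete control) made versus untreated controls after 12 to 14 greenhouse days. Test chemicals, formulated in surfactant-containing non-phytotoxic solvent, applied preemergence to planted seeds or postemergence to 1- to 4-leaf plants (2 to 18 cm).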

giant foxtail = assay: Test C pre-/postemergence herbicide test; assay type: in vivo, Setaria faberi; details: preemergence; for Plant response rating (0 = no effect, 100 = complete control), Foxtail, Giant: 125 g ai/ha
Procedure, shortened: as §1

[1] = system: common (oilseed) sunflower; assay: Test C pre-/postemergence herbicide test; assay type: in vivo, Helianthus annuus; details: preemergence; for Plant response rating (0 = no effect, 100 = complete control), Sunflower: 125 g ai/ha
Procedure, shortened: as §1

eastern black nightshade = assay: Test C pre-/postemergence herbicide test; assay type: in vivo, Solanum ptycanthum; details: preemergence; for Plant response rating (0 = no effect, 100 = complete control), Nightshade: 125 g ai/ha
Procedure, shortened: as §1

barnyardgrass = assay: Test C flooded paddy test; assay type: in vivo, Echinochloa crus-galli; details: for Plant response rating, Barnyardgrass: 500 g ai/ha, visual rating after 12 to 14 days
Procedure, shortened: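 Injury scored visually against controls on a 0 (no effect) to 100 (complete control) scale, 12 to 14 days after treatment in greenhouse. Flooded paddy plants treated at 2-leaf stage; postemergence plants at 1- to 4-leaf stage, 2 to 18 cm tall.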

rice = assay: Test C flooded paddy test; assay type: in vivo, Oryza sativa; details: for Plant response rating, Rice: 500 g ai/ha, visual rating after 12 to 14 days
Procedure, shortened: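 Postemergence sprays applied to plants 2 to 18 cm tall (1- to 4-leaf stage); paddy species grown to 2-leaf stage under flooding. After 12 to 14 days in greenhouse, visual rating versus untreated controls on 0–100 scale (0 no effect, 100 complete control).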

[2] = 500 g ai/ha, scale 0 to 100 (0 no effect, 100 complete control), visual, 12 to 14 days
[3] = 62 g ai/ha, scale 0 to 100 (0 no effect, 100 complete control)
[4] = 125 g ai/ha, scale 0 to 100 (0 no effect, 100 complete control)
[5] = 250 g ai/ha, scale of 0 to 100, 0 is no effect, 100 is complete control
[6] = scale 0 to 100 (0 no effect, 100 complete control)

SMILES | Plant response rating, Ragweed (common ragweed; 62 g ai/ha, scale 0 to 100) | Plant response rating (0 = no effect, 100 = complete control), Ragweed (common ragweed) | Plant response rating, Ragweed (common ragweed; 250 g ai/ha, scale 0-100) | Plant response rating, Ragweed (common ragweed; [2]) | Plant response rating, Foxtail, Giant (giant foxtail; 62 g ai/ha, scale 0 to 100) | Plant response rating (0 = no effect, 100 = complete control), Foxtail, Giant (giant foxtail) | Plant response rating, Foxtail, Giant (giant foxtail; 250 g ai/ha, scale 0-100) | Plant response rating, Foxtail, Giant (giant foxtail; [2]) | Plant response rating, Sunflower ([1]; 62 g ai/ha, scale 0 to 100) | Plant response rating (0 = no effect, 100 = complete control), Sunflower [1] | Plant response rating, Sunflower ([1]; 250 g ai/ha, scale 0-100) | Plant response rating, Sunflower [1, 2] | Plant response rating, Nightshade (eastern black nightshade; 62 g ai/ha, scale 0 to 100) | Plant response rating (0 = no effect, 100 = complete control), Nightshade (eastern black nightshade) | Plant response rating, Nightshade (eastern black nightshade; 250 g ai/ha, scale 0-100) | Plant response rating, Nightshade (eastern black nightshade; [2]) | Barnyardgrass plant response rating (barnyardgrass; [3]) | Barnyardgrass plant response rating (barnyardgrass; [4]) | Barnyardgrass plant response rating (barnyardgrass; [5]) | Plant response rating, Barnyardgrass (barnyardgrass; [6]) | also measured
CCC1=NN(C(C)(C)C)CC1C(=O)Nc1cc(C(=O)N2CC=CC2)ccc1F (racemic) [Compound 340] | 0 | 0 | 20 | 75 | 0 | 10 | 60 | 85 | 0 | 0 | 0 | 5 | 60 | 90 | 100 | 100 | 20 | 50 | 60 | 70 | Rice plant response rating (rice; 62 g ai/ha, scale 0 to 100): 20; Rice plant response rating (rice; [4]): 40; Rice plant response rating (rice; [5]): 70; Plant response rating, Rice (rice; [6]): 80
CCC1=NN(C(C)(C)C)CC1C(=O)Nc1cc(C(=O)N2CCCC2)ccc1F (racemic) [Compound 341] | 50 | 100 | 100 | 100 | 0 | 50 | 55 | 80 | 0 | 0 | 50 | 100 | 50 | 55 | 100 | 100 | 30 | 30 | 50 | 60 | Rice plant response rating (rice; 62 g ai/ha, scale 0 to 100): 20; Rice plant response rating (rice; [4]): 50; Rice plant response rating (rice; [5]): 60; Plant response rating, Rice (rice; [6]): 70
CCC1=NN(C(C)(C)C)CC1C(=O)Nc1cc(C(=O)N(C)CC)ccc1F (racemic) [Compound 342] | 55 | 95 | 100 | 100 | 0 | 40 | 55 | 70 | 5 | 20 | 75 | 100 | 60 | 80 | 80 | 85 | 20 | 20 | 50 | 60 | Rice plant response rating (rice; 62 g ai/ha, scale 0 to 100): 20; Rice plant response rating (rice; [4]): 30; Rice plant response rating (rice; [5]): 60; Plant response rating, Rice (rice; [6]): 80
